Test results reported in patent publication US12544453B2, “Amphotericin B conjugated stabilized gold nanoparticles and uses thereof” (Max-Planck-Gesellschaft zur Förderung der Wissenschaften …, priority 2019, dated 2026).
≈ marks a conversion by molar mass, not a printed value. Read-outs that look alike come from different tables or passages of the source.

Legend:
Assay in all cases: Antifungal susceptibility testing, broth microdilution MIC
Assay type in all cases: cell-based
Cryptococcus gatti = conditions: read-out: Minimum Inhibitory Concentration (MIC)
Description: (§1) The minimum inhibitory concentrations (MICs) of fluconazole, amphotericin B, amphotericin B thiohexose or thiopentose stabilized gold nanoparticles, and of naked gold nanoparticles were determined using broth microdilution methods following the guidelines of the Clinical and Laboratory Standards Institute (Reference Method for Broth Dilution Antifungal Susceptibility Testing of Yeasts, Alexander B. D., 2017, M27-A4). Microtiter 96-well plates containing two-fold serial dilutions, at final concentrations ranging from […], of the test agents in RPMI-1640 medium (buffered with MOPS and adjusted to pH=7) were inoculated with the freshly-prepared fungal suspensions. Microtiter plates were incubated at 35° C. for 24-72 hrs according to the tested species.

Candida krusei = conditions: Pichia kudriavzevii, read-out: Minimum Inhibitory Concentration (MIC)
Description: as §1

Candida tropicalis = tested on: Candida tropicalis
Description: as §1

Candida glabrata = conditions: Nakaseomyces glabratus, fluconazole MIC50 (50% growth reduction), read-out: Minimum Inhibitory Concentration (MIC)
Description: as §1

Aspergillus fumigatus = conditions: read-out: Minimum Inhibitory Concentration (MIC)
Description: as §1

Candida albicans = conditions: read-out: Minimum Inhibitory Concentration (MIC)
Description: as §1

Candida auris = conditions: Candidozyma auris, fluconazole MIC50 (50% growth reduction), read-out: Minimum Inhibitory Concentration (MIC)
Description: as §1

Cryptococcus neoformans = conditions: read-out: Minimum Inhibitory Concentration (MIC)
Description: as §1

Candida parapsilosis = conditions: Lodderomyces parapsilosis, read-out: Minimum Inhibitory Concentration (MIC)
Description: as §1

Molecule `OC(Cn1cncn1)(Cn1cncn1)c1ccc(F)cc1F` [Fluconazole] has an MIC (Cryptococcus gatti; Cryptococcus gatti NR-43208, fluconazole MIC50 (50% growth reduction)) of 8 µg/mL (≈ 26.1 µM), an MIC (Cryptococcus gatti; Cryptococcus gatti NR-43209, fluconazole MIC50 (50% growth reduction)) of 16 µg/mL (≈ 52.2 µM) and an MIC (Cryptococcus gatti; Cryptococcus gatti NR-43210, fluconazole MIC50 (50% growth reduction)) of 16 µg/mL (≈ 52.2 µM). The MIC (Cryptococcus gatti; Cryptococcus gatti NR-43213, fluconazole MIC50 (50% growth reduction)) was 8 µg/mL (≈ 26.1 µM), the MIC (Candida krusei; ATCC14243) was 16 µg/mL (≈ 52.2 µM) and the MIC (Candida krusei; ATCC34135) was 16 µg/mL (≈ 52.2 µM). The MIC (Candida krusei) was 16 µg/mL (≈ 52.2 µM), the MIC (Candida tropicalis; ATCC1369, read-out: Minimum Inhibitory Concentration (MIC)) was 0.5 µg/mL (≈ 1.63 µM) and the MIC (Candida tropicalis; ATCC13803, read-out: Minimum Inhibitory Concentration (MIC)) was 0.25 µg/mL (≈ 0.816 µM). It also gave an MIC (Candida glabrata; ATCC2001, Candida glabrata ATCC 2001) of 4 µg/mL (≈ 13.1 µM), an MIC (Candida glabrata; ATCC66032, Candida glabrata ATCC 66032) of 8 µg/mL (≈ 26.1 µM) and an MIC (Candida glabrata; Candida glabrata ATCC MYA-2950) of 8 µg/mL (≈ 26.1 µM). It also gave an MIC (Candida glabrata; Candida glabrata CAB 524041) of 4 µg/mL (≈ 13.1 µM), an MIC (Aspergillus fumigatus; Aspergillus fumigatus NR-35303, fluconazole MIC50 (50% growth reduction)) of 128 µg/mL (≈ 418 µM) and an MIC (Aspergillus fumigatus; Aspergillus fumigatus NR-35304, fluconazole MIC50 (50% growth reduction)) of over 128 µg/mL. It also gave an MIC (Aspergillus fumigatus; Aspergillus fumigatus NR-41312, fluconazole MIC50 (50% growth reduction)) of 128 µg/mL (≈ 418 µM), an MIC (Candida albicans; ATCC10231, Candida albicans ATCC 10231, fluconazole MIC50 (50% growth reduction)) of 2 µg/mL (≈ 6.53 µM) and an MIC (Candida albicans; ATCC26790, Candida albicans ATCC 26790, fluconazole MIC50 (50% growth reduction)) of 1 µg/mL (≈ 3.27 µM). The MIC (Candida albicans; ATCC64124, Candida albicans ATCC 64124, fluconazole MIC50 (50% growth reduction)) was 128 µg/mL (≈ 418 µM), the MIC (Candida albicans; Candida albicans NR 29446, fluconazole MIC50 (50% growth reduction)) was over 128 µg/mL and the MIC (Candida albicans; Candida albicans NR 29448, fluconazole MIC50 (50% growth reduction)) was over 128 µg/mL. For the same molecule, the MIC (Candida albicans; SC5314, Candida albicans SC5314, fluconazole MIC50 (50% growth reduction)) was 0.5 µg/mL (≈ 1.63 µM), the MIC (Candida auris; Candida auris 381) was 1 µg/mL (≈ 3.27 µM) and the MIC (Candida auris; Candida auris 385) was over 128 µg/mL. It also gave an MIC (Candida auris; Candida auris 386) of over 128 µg/mL, an MIC (Candida auris; Candida auris 389) of over 128 µg/mL and an MIC (Candida auris; Candida auris 390) of over 128 µg/mL. It also gave an MIC (Cryptococcus neoformans; Cryptococcus neoformans NR-41291, fluconazole MIC50 (50% growth reduction)) of 16 µg/mL (≈ 52.2 µM), an MIC (Cryptococcus neoformans; Cryptococcus neoformans NR-41295, fluconazole MIC50 (50% growth reduction)) of 32 µg/mL (≈ 104 µM) and an MIC (Cryptococcus neoformans; Cryptococcus neoformans NR-41298, fluconazole MIC50 (50% growth reduction)) of 4 µg/mL (≈ 13.1 µM). The MIC (Cryptococcus neoformans; Cryptococcus neoformans NR-48767, fluconazole MIC50 (50% growth reduction)) was 4 µg/mL (≈ 13.1 µM), the MIC (Candida parapsilosis; ATCC22019) was 2 µg/mL (≈ 6.53 µM) and the MIC (Candida parapsilosis) was 0.5 µg/mL (≈ 1.63 µM).
